Columns and labels:
Test in all cases: relative viability (nuclei count vs DMSO), 5 days (fraction); higher = more cells survive
NCI-H1793 = tested on: NCI-H1793
How it was run: (§1)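 Relative viability equals treated-well nuclei counts divided by vehicle-well nuclei counts. Counts came from 4× images of lung cancer cell lines grown in 1536-well plates for 5 days after pin-tool dosing on the day after seeding. Dosing used one drug alone or a fixed anchor-drug dose plus five library-drug doses (not always all listed) in √10 steps, and values are medians of duplicate plates.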

NCI-H1355 = tested on: NCI-H1355
How it was run: as §1

NCI-H2085 = tested on: NCI-H2085
How it was run: as §1

BEN = tested on: BEN
How it was run: as §1

NCI-H838 = tested on: NCI-H838
How it was run: as §1

NCI-H1651 = tested on: NCI-H1651
How it was run: as §1

COR-L23 = tested on: COR-L23
How it was run: as §1

NCI-H441 = tested on: NCI-H441
How it was run: as §1

LU99A = tested on: LU99A
How it was run: as §1

NCI-H1650 = tested on: NCI-H1650
How it was run: as §1

NCI-H2023 = tested on: NCI-H2023
How it was run: as §1

NCI-H460 = tested on: NCI-H460
How it was run: as §1

NCI-H2342 = tested on: NCI-H2342
How it was run: as §1

NCI-H1437 = tested on: NCI-H1437
How it was run: as §1

NCI-H358 = tested on: NCI-H358
How it was run: as §1

NCI-H1734 = tested on: NCI-H1734
How it was run: as §1

HCC-366 = tested on: HCC-366
How it was run: as §1

CAL-12T = tested on: CAL-12T
How it was run: as §1

LOU-NH91 = tested on: LOU-NH91
How it was run: as §1

NCI-H1975 = tested on: NCI-H1975
How it was run: as §1

SK-LU-1 = tested on: SK-LU-1
How it was run: as §1

## CCN(CC)CCCCNc1ncc2cc(-c3cc(OC)cc(OC)c3)c(NC(=O)NC(C)(C)C)nc2n1 + O=C(c1cc(Cc2n[nH]c(=O)c3ccccc23)ccc1F)N1CCN(C(=O)C2CC2)CC1 [Olaparib] (partner 8 µM)
NCI-H1793; first compound 0.01 µM
  relative viability: 0.676
NCI-H1793; first compound 0.03162 µM
  relative viability: 0.839
NCI-H1793; first compound 0.1 µM
  relative viability: 1.23
NCI-H1793; first compound 0.3162 µM
  relative viability: 0.926
NCI-H1793; first compound 1 µM
  relative viability: 0.54
NCI-H1355; first compound 0.01 µM
  relative viability: 0.789
NCI-H1355; first compound 0.03162 µM
  relative viability: 0.719
NCI-H1355; first compound 0.1 µM
  relative viability: 0.853
NCI-H1355; first compound 0.3162 µM
  relative viability: 0.83
NCI-H1355; first compound 1 µM
  relative viability: 0.737
NCI-H2085; first compound 0.01 µM
  relative viability: 0.818
NCI-H2085; first compound 0.03162 µM
  relative viability: 0.81
NCI-H2085; first compound 0.1 µM
  relative viability: 0.792
NCI-H2085; first compound 0.3162 µM
  relative viability: 0.743
NCI-H2085; first compound 1 µM
  relative viability: 0.752
BEN; first compound 0.01 µM
  relative viability: 1.18
BEN; first compound 0.03162 µM
  relative viability: 0.97
BEN; first compound 0.1 µM
  relative viability: 1.01
BEN; first compound 0.3162 µM
  relative viability: 1.17
BEN; first compound 1 µM
  relative viability: 1.01
NCI-H838; first compound 0.01 µM
  relative viability: 0.824
NCI-H838; first compound 0.03162 µM
  relative viability: 0.835
NCI-H838; first compound 0.1 µM
  relative viability: 0.743
NCI-H838; first compound 0.3162 µM
  relative viability: 0.745
NCI-H838; first compound 1 µM
  relative viability: 0.603
NCI-H1651; first compound 0.01 µM
  relative viability: 0.193
NCI-H1651; first compound 0.03162 µM
  relative viability: 0.192
NCI-H1651; first compound 0.1 µM
  relative viability: 0.175
NCI-H1651; first compound 0.3162 µM
  relative viability: 0.203
NCI-H1651; first compound 1 µM
  relative viability: 0.183
COR-L23; first compound 0.01 µM
  relative viability: 0.365
COR-L23; first compound 0.03162 µM
  relative viability: 0.378
COR-L23; first compound 0.1 µM
  relative viability: 0.368
COR-L23; first compound 0.3162 µM
  relative viability: 0.403
COR-L23; first compound 1 µM
  relative viability: 0.344
NCI-H441; first compound 0.01 µM
  relative viability: 0.601
NCI-H441; first compound 0.03162 µM
  relative viability: 0.556
NCI-H441; first compound 0.1 µM
  relative viability: 0.531
NCI-H441; first compound 0.3162 µM
  relative viability: 0.715
NCI-H441; first compound 1 µM
  relative viability: 0.688
LU99A; first compound 0.01 µM
  relative viability: 0.249
LU99A; first compound 0.03162 µM
  relative viability: 0.288
LU99A; first compound 0.1 µM
  relative viability: 0.286
LU99A; first compound 0.3162 µM
  relative viability: 0.285
LU99A; first compound 1 µM
  relative viability: 0.245
NCI-H1650; first compound 0.01 µM
  relative viability: 0.815
NCI-H1650; first compound 0.03162 µM
  relative viability: 0.819
NCI-H1650; first compound 0.1 µM
  relative viability: 0.822
NCI-H1650; first compound 0.3162 µM
  relative viability: 0.635
NCI-H1650; first compound 1 µM
  relative viability: 0.676
NCI-H2023; first compound 0.01 µM
  relative viability: 0.521
NCI-H2023; first compound 0.03162 µM
  relative viability: 0.512
NCI-H2023; first compound 0.1 µM
  relative viability: 0.668
NCI-H2023; first compound 0.3162 µM
  relative viability: 0.55
NCI-H2023; first compound 1 µM
  relative viability: 0.449
NCI-H460; first compound 0.01 µM
  relative viability: 0.462
NCI-H460; first compound 0.03162 µM
  relative viability: 0.514
NCI-H460; first compound 0.1 µM
  relative viability: 0.52
NCI-H460; first compound 0.3162 µM
  relative viability: 0.57
NCI-H460; first compound 1 µM
  relative viability: 0.43
NCI-H2342; first compound 0.01 µM
  relative viability: 0.476
NCI-H2342; first compound 0.03162 µM
  relative viability: 0.437
NCI-H2342; first compound 0.1 µM
  relative viability: 0.459
NCI-H2342; first compound 0.3162 µM
  relative viability: 0.509
NCI-H2342; first compound 1 µM
  relative viability: 0.519
NCI-H1437; first compound 0.01 µM
  relative viability: 0.635
NCI-H1437; first compound 0.03162 µM
  relative viability: 0.666
NCI-H1437; first compound 0.1 µM
  relative viability: 0.681
NCI-H1437; first compound 0.3162 µM
  relative viability: 0.642
NCI-H1437; first compound 1 µM
  relative viability: 0.614
NCI-H358; first compound 0.01 µM
  relative viability: 0.683
NCI-H358; first compound 0.03162 µM
  relative viability: 0.642
NCI-H358; first compound 0.1 µM
  relative viability: 0.744
NCI-H358; first compound 0.3162 µM
  relative viability: 0.69
NCI-H358; first compound 1 µM
  relative viability: 0.469
NCI-H1734; first compound 0.01 µM
  relative viability: 0.595
NCI-H1734; first compound 0.03162 µM
  relative viability: 0.614
NCI-H1734; first compound 0.1 µM
  relative viability: 0.746
NCI-H1734; first compound 0.3162 µM
  relative viability: 0.638
NCI-H1734; first compound 1 µM
  relative viability: 0.569
HCC-366; first compound 0.01 µM
  relative viability: 0.323
HCC-366; first compound 0.03162 µM
  relative viability: 0.374
HCC-366; first compound 0.1 µM
  relative viability: 0.362
HCC-366; first compound 0.3162 µM
  relative viability: 0.405
HCC-366; first compound 1 µM
  relative viability: 0.346
CAL-12T; first compound 0.01 µM
  relative viability: 0.678
CAL-12T; first compound 0.03162 µM
  relative viability: 0.78
CAL-12T; first compound 0.1 µM
  relative viability: 0.829
CAL-12T; first compound 0.3162 µM
  relative viability: 0.845
CAL-12T; first compound 1 µM
  relative viability: 0.763
LOU-NH91; first compound 0.01 µM
  relative viability: 0.895
LOU-NH91; first compound 0.03162 µM
  relative viability: 0.9
LOU-NH91; first compound 0.1 µM
  relative viability: 0.954
LOU-NH91; first compound 0.3162 µM
  relative viability: 0.952
LOU-NH91; first compound 1 µM
  relative viability: 0.884
NCI-H1975; first compound 0.01 µM
  relative viability: 0.85
NCI-H1975; first compound 0.03162 µM
  relative viability: 0.791
NCI-H1975; first compound 0.1 µM
  relative viability: 1.05
NCI-H1975; first compound 0.3162 µM
  relative viability: 0.903
NCI-H1975; first compound 1 µM
  relative viability: 0.708
SK-LU-1; first compound 0.01 µM
  relative viability: 0.447
SK-LU-1; first compound 0.03162 µM
  relative viability: 0.404
SK-LU-1; first compound 0.1 µM
  relative viability: 0.477
SK-LU-1; first compound 0.3162 µM
  relative viability: 0.472
SK-LU-1; first compound 1 µM
  relative viability: 0.433
